This note sets out measurements from patent US20240368177A1, “5-AMINO-6,8-DIHYDRO-1H-FURO[3,4-d]PYRROLO[3,2-b]PYRIDINE-2-CARBOXAMIDE DERIVATIVES AS MTA-COOPERATIVE INHIBITORS OF PRMT5” (BeiGene Switzerland GmbH, priority 2023, published 2024).

The structures appear in SMILES notation. Some results are limits rather than exact numbers.

The test system of assay [1] is HCT116-MTAP-KO. Put plainly: Cell killing in HCT116 isogenic pair (Cell Titer-Glo viability), MTAP knock-out cells. In kind it is cell-based, human. The following applies: 6 days incubation, 0-10 μM, * = more than 50% viability inhibition at tested concentration without a full curve. Put shortly: (§1)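 HCT116 MTAP-knockout or mock-knockout (MTAP wildtype) cells in RPMI 1640 with 10% FBS were seeded overnight, then exposed to test compound at 0–10 μM final for 6 days at 37° C. Viability was measured by CellTiter-Glo luminescence and IC50 was fitted.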

The test system of assay [2] is HCT116-mock-RNA-KO. Put plainly: Cell killing in HCT116 isogenic pair (Cell Titer-Glo viability), mock knock-out cells with MTAP wildtype genotype. In kind it is cell-based, human. The following applies: 6 days incubation, 0-10 μM. In short, it runs like this: as §1
(In general: ATP-based viability assays read luminescence as a measure of living cells.)

Consider `CCN(C(=O)c1cc2nc(N)c3c(c2[nH]1)COC3)[C@H](C)c1ccc(C(F)(F)F)cc1F` [Example 135, (R)-5-amino-N-ethyl-N-(1-(2-fluoro-4-(trifluoromethyl)phenyl)ethyl)-6,8-dihydro-1H-furo[3,4-d]pyrrolo[3,2-b]pyridine-2-carboxamide], for which the IC50 in assay [1] (Homo sapiens, HCT-116, 144 h) was determined as 26 nM; in assay [2] (Homo sapiens, HCT-116, 144 h), 2130 nM.
The like results for `C[C@H](c1ncc(C2CC2)cc1F)N(C(=O)c1cc2nc(N)c3c(c2[nH]1)COC3)C1CCC1` [Example 153, (R)-5-amino-N-cyclobutyl-N-(1-(5-cyclopropyl-3-fluoropyridin-2-yl)ethyl)-6,8-dihydro-1H-furo[3,4-d]pyrrolo[3,2-b]pyridine-2-carboxamide] were, in that order, 10 nM and 610 nM.
The like results for `CN(C(=O)c1cc2nc(N)c3c(c2[nH]1)COC3)[C@@H]1COC2(CC2)c2cc(C(F)(F)F)cc(F)c21` [Example 168, (S)-5-amino-N-(5′-fluoro-7′-(trifluoromethyl)spiro[cyclopropane-1,1′-isochroman]-4′-yl)-N-methyl-6,8-dihydro-1H-furo[3,4-d]pyrrolo[3,2-b]pyridine-2-carboxamide] were, in that order, 8.4 nM and 2110 nM.
Take `C[C@H]1OCc2c1c(N)nc1cc(C(=O)N(C)[C@@H](C)c3ccc(Br)cc3F)[nH]c21` [Example 140, (R)-5-amino-N—((S)-1-(4-bromo-2-fluorophenyl)ethyl)-N,6-dimethyl-6,8-dihydro-1H-furo[3,4-d]pyrrolo[3,2-b]pyridine-2-carboxamide]: the IC50 in assay [1] (Homo sapiens, HCT-116, 144 h) stood at 270 nM; in assay [2] (Homo sapiens, HCT-116, 144 h), 3030 nM.
For `COCC(C)N(Cc1c(F)cccc1F)C(=O)c1cc2nc(N)c3c(c2[nH]1)COC3` (stereo not drawn) [Example 8, 5-amino-N-(2,6-difluorobenzyl)-N-(1-methoxypropan-2-yl)-6,8-dihydro-1H-furo[3,4-d]pyrrolo[3,2-b]pyridine-2-carboxamide], the IC50 in assay [1] (Homo sapiens, HCT-116, 144 h) is 34 nM; in assay [2] (Homo sapiens, HCT-116, 144 h) it was 2750 nM.
The like results for `Nc1nc2cc(C(=O)N3CCOC[C@@H]3c3ccc(C(F)(F)F)cc3)[nH]c2c2c1COC2` [Example 141, (S)-(5-amino-6,8-dihydro-1H-furo[3,4-d]pyrrolo[3,2-b]pyridin-2-yl)(3-(4-(trifluoromethyl)phenyl)morpholino)methanone] were, in that order, 149 nM and greater than 10000 nM.
Regarding `Nc1nc2cc(C(=O)N(Cc3ncc(C4CC4)cc3F)C3CCCC3)[nH]c2c2c1COC2` [Example 65, 5-amino-N-cyclopentyl-N-((5-cyclopropyl-3-fluoropyridin-2-yl)methyl)-6,8-dihydro-1H-furo[3,4-d]pyrrolo[3,2-b]pyridine-2-carboxamide], the IC50 came out at 17 nM in assay [1] (Homo sapiens, HCT-116, 144 h) and 2460 nM in assay [2] (Homo sapiens, HCT-116, 144 h).
For `CN(C(=O)c1cc2nc(N)c3c(c2[nH]1)COC3)[C@@H]1CN(C(=O)C2CC2)Cc2cc(C(F)(F)F)ccc21` [Example 100, (S)-5-amino-N-(2-(cyclopropanecarbonyl)-7-(trifluoromethyl)-1,2,3,4-tetrahydroisoquinolin-4-yl)-N-methyl-6,8-dihydro-1H-furo[3,4-d]pyrrolo[3,2-b]pyridine-2-carboxamide], the 50% inhibitory concentration (IC50) in assay [1] (Homo sapiens, HCT-116, 144 h) is 1.4 nM; in assay [2] (Homo sapiens, HCT-116, 144 h), 136 nM.
Take `CN(C(=O)c1cc2nc(N)c3c(c2[nH]1)COC3)[C@@H]1COCc2cc(C#N)cc(F)c21` [Example 97, (S)-5-amino-N-(7-cyano-5-fluoroisochroman-4-yl)-N-methyl-6,8-dihydro-1H-furo[3,4-d]pyrrolo[3,2-b]pyridine-2-carboxamide]: the IC50 in assay [1] (Homo sapiens, HCT-116, 144 h) is 17 nM; in assay [2] (Homo sapiens, HCT-116, 144 h) it was 2890 nM.
As to `CCN(C(=O)c1cc2nc(N)c3c(c2[nH]1)CO[C@@H]3C)[C@H](C)c1ccc(C2CC2)cc1F` [Example 175, (R)-5-amino-N—((R)-1-(4-cyclopropyl-2-fluorophenyl)ethyl)-N-ethyl-6-methyl-6,8-dihydro-1H-furo[3,4-d]pyrrolo[3,2-b]pyridine-2-carboxamide], the IC50 in assay [1] (Homo sapiens, HCT-116, 144 h) was determined as 14 nM; in assay [2] (Homo sapiens, HCT-116, 144 h) it was 704 nM.
With `CO[C@@H]1CCOC[C@H]1N(Cc1ccc(C2CC2)cn1)C(=O)c1cc2nc(N)c3c(c2[nH]1)COC3` [Example 36, 5-amino-N-((5-cyclopropylpyridin-2-yl)methyl)-N-((3R,4R)-4-methoxytetrahydro-2H-pyran-3-yl)-6,8-dihydro-1H-furo[3,4-d]pyrrolo[3,2-b]pyridine-2-carboxamide], the IC50 in assay [1] (Homo sapiens, HCT-116, 144 h) amounted to 5.8 nM; in assay [2] (Homo sapiens, HCT-116, 144 h), 445 nM.
For `CC(C)N(Cc1ncc(C2CC2)cc1F)C(=O)c1cc2nc(N)c3c(c2[nH]1)COC3` [Example 66, 5-amino-N-((5-cyclopropyl-3-fluoropyridin-2-yl)methyl)-N-isopropyl-6,8-dihydro-1H-furo[3,4-d]pyrrolo[3,2-b]pyridine-2-carboxamide] the same measures were 20 nM and 2520 nM.
Regarding `C[C@H](c1ccc(Br)cc1F)N(C)C(=O)c1cc2nc(N)c3c(c2[nH]1)COC3` [Example 137, (R)-5-amino-N-(1-(4-bromo-2-fluorophenyl)ethyl)-N-methyl-6,8-dihydro-1H-furo[3,4-d]pyrrolo[3,2-b]pyridine-2-carboxamide], the IC50 in assay [1] (Homo sapiens, HCT-116, 144 h) came to 44 nM; in assay [2] (Homo sapiens, HCT-116, 144 h), 3020 nM.
Take `CC[C@@H]1OC[C@@H](N(C)C(=O)c2cc3nc(N)c4c(c3[nH]2)COC4)c2ccc(C(F)(F)F)cc21` [Example 93, 5-amino-N-((1S,4S)-1-ethyl-7-(trifluoromethyl)isochroman-4-yl)-N-methyl-6,8-dihydro-1H-furo[3,4-d]pyrrolo[3,2-b]pyridine-2-carboxamide]: the IC50 was 165 nM in assay [1] (Homo sapiens, HCT-116, 144 h) and greater than 10000 nM in assay [2] (Homo sapiens, HCT-116, 144 h).
On to `C[C@H]1OCc2c1c(N)nc1cc(C(=O)N(C)[C@H]3COCc4cc(Br)ccc43)[nH]c21` [Example 71, (R)-5-amino-N—((R)-7-bromoisochroman-4-yl)-N,6-dimethyl-6,8-dihydro-1H-furo[3,4-d]pyrrolo[3,2-b]pyridine-2-carboxamide], for which the IC50 was 728 nM in assay [1] (Homo sapiens, HCT-116, 144 h) and 6160 nM in assay [2] (Homo sapiens, HCT-116, 144 h).
As for `C[C@H]1OCc2c1c(N)nc1cc(C(=O)N(C)[C@@H]3COC4(CC4)c4cc(C(F)(F)F)cc(F)c43)[nH]c21` [Example 170, (R)-5-amino-N—((S)-5′-fluoro-7-(trifluoromethyl)spiro[cyclopropane-1,1′-isochroman]-4′-yl)-N,6-dimethyl-6,8-dihydro-1H-furo[3,4-d]pyrrolo[3,2-b]pyridine-2-carboxamide], the results for the IC50 in assay [1] and in assay [2] were 4.4 nM and 1010 nM, respectively.
As for `CCN(C(=O)c1cc2nc(N)c3c(c2[nH]1)COC3)[C@H](C)c1ncc(C(F)(F)F)cc1F` [Example 110, (R)-5-amino-N-ethyl-N-(1-(3-fluoro-5-(trifluoromethyl)pyridin-2-yl)ethyl)-6,8-dihydro-1H-furo[3,4-d]pyrrolo[3,2-b]pyridine-2-carboxamide], the 50% inhibitory concentration (IC50) amounted to 12 nM in assay [1] (Homo sapiens, HCT-116, 144 h) and 2490 nM in assay [2] (Homo sapiens, HCT-116, 144 h).
The like results for `C[C@H](c1ccc(C2CC2)cc1F)N(C)C(=O)c1cc2nc(N)c3c(c2[nH]1)COC3` [Example 173, (R)-5-amino-N-(1-(4-cyclopropyl-2-fluorophenyl)ethyl)-N-methyl-6,8-dihydro-1H-furo[3,4-d]pyrrolo[3,2-b]pyridine-2-carboxamide] were, in that order, 67 nM and 5920 nM.
Turning to `CN(C(=O)c1cc2nc(N)c3c(c2[nH]1)COC3)[C@@H]1COC2(CC2)c2cc(C3CC3)ccc21` [Example 172, (S)-5-amino-N-(7′-cyclopropylspiro[cyclopropane-1,1′-isochroman]-4′-yl)-N-methyl-6,8-dihydro-1H-furo[3,4-d]pyrrolo[3,2-b]pyridine-2-carboxamide], the IC50 was 33 nM in assay [1] (Homo sapiens, HCT-116, 144 h) and 5050 nM in assay [2] (Homo sapiens, HCT-116, 144 h).
In the case of `CC(=O)N1CC[C@@H](N(C)C(=O)c2cc3nc(N)c4c(c3[nH]2)COC4)c2ccc(C(F)(F)F)cc21` [Example 90, (R)—N-(1-acetyl-7-(trifluoromethyl)-1,2,3,4-tetrahydroquinolin-4-yl)-5-amino-N-methyl-6,8-dihydro-1H-furo[3,4-d]pyrrolo[3,2-b]pyridine-2-carboxamide], the half-inhibitory concentration (IC50) came to 29 nM in assay [1] (Homo sapiens, HCT-116, 144 h) and 5450 nM in assay [2] (Homo sapiens, HCT-116, 144 h).
Consider `COC[C@@H](C)N(Cc1ccc(Br)cn1)C(=O)c1cc2nc(N)c3c(c2[nH]1)COC3` [Example 45, (R)-5-amino-N-((5-bromopyridin-2-yl)methyl)-N-(1-methoxypropan-2-yl)-6,8-dihydro-1H-furo[3,4-d]pyrrolo[3,2-b]pyridine-2-carboxamide], for which the IC50 was 7.2 nM in assay [1] (Homo sapiens, HCT-116, 144 h) and 856 nM in assay [2] (Homo sapiens, HCT-116, 144 h).
For `COCC(COC)N(Cc1ccc(-c2c(F)cccc2F)cn1)C(=O)c1cc2nc(N)c3c(c2[nH]1)COC3` [Example 16, 5-amino-N-((5-(2,6-difluorophenyl)pyridin-2-yl)methyl)-N-(1,3-dimethoxypropan-2-yl)-6,8-dihydro-1H-furo[3,4-d]pyrrolo[3,2-b]pyridine-2-carboxamide], the concentration for half-maximal inhibition (IC50) is 1 nM in assay [1] (Homo sapiens, HCT-116, 144 h) and 165 nM in assay [2] (Homo sapiens, HCT-116, 144 h).
As for `C[C@H](c1ncccn1)N(Cc1ccc(-c2c(F)cccc2F)cn1)C(=O)c1cc2nc(N)c3c(c2[nH]1)COC3` [Example 18, (R)-5-amino-N-((5-(2,6-difluorophenyl)pyridin-2-yl)methyl)-N-(1-(pyrimidin-2-yl)ethyl)-6,8-dihydro-1H-furo[3,4-d]pyrrolo[3,2-b]pyridine-2-carboxamide], the IC50 in assay [1] (Homo sapiens, HCT-116, 144 h) is 1.8 nM; in assay [2] (Homo sapiens, HCT-116, 144 h), 96 nM.
Take `C[C@H]1OCc2c1c(N)nc1cc(C(=O)N(C)[C@@H]3COC4(CC4)c4cc(Br)ccc43)[nH]c21` [Example 180, (R)-5-amino-N—((S)-7′-bromospiro[cyclopropane-1,1′-isochroman]-4′-yl)-N,6-dimethyl-6,8-dihydro-1H-furo[3,4-d]pyrrolo[3,2-b]pyridine-2-carboxamide]: the IC50 in assay [1] (Homo sapiens, HCT-116, 144 h) amounted to 20 nM; in assay [2] (Homo sapiens, HCT-116, 144 h) it was 3570 nM.

Broadly, the IC50 is the concentration needed to halve the response being measured. Lower therefore signals inhibition by little substance.
